What all share (assay type): biochemical
Assay [1] has as its target T1, PI3Kδ (Homo sapiens, UniProt O00329).
T1 construct: gene PIK3CD; with Phosphatidylinositol 3-kinase regulatory subunit alpha
Kind of assay: PI3K-Glo ADP detection kinase assay. From the text: PI3K-Glo ADP detection kinase assay on PI3Kδ

In assay [2] the target is T2, PI3Kγ (Homo sapiens, UniProt P48736).
T2 construct: gene PIK3CG
Kind of assay: PI3K-Glo ADP detection kinase assay. An excerpt: PI3K-Glo ADP detection kinase assay on PI3Kγ

Assay [3] addresses T3, PI3Kα (Homo sapiens, UniProt P42336).
T3 construct: gene PIK3CA; with Phosphatidylinositol 3-kinase regulatory subunit alpha
Kind of assay: PI3K-Glo ADP detection kinase assay. From the text: PI3K-Glo ADP detection kinase assay on PI3Kα

The target in assay [4] is T4, PI3Kβ (Homo sapiens, UniProt P42338).
T4 construct: gene PIK3CB; with Phosphatidylinositol 3-kinase regulatory subunit alpha
Kind of assay: PI3K-Glo ADP detection kinase assay. From the text: PI3K-Glo ADP detection kinase assay on PI3Kβ

Assay [5] has as its target T5, ERK.
T5 construct: gene MAPK1; enzyme source and assay not described; ERK2 used only for docking
Kind of assay: kinase activity profile; ERK assay not described. An excerpt: kinase activity profile; ERK assay not described on ERK

This note sets out measurements from paper PMC8355706, “CK-3, A Novel Methsulfonyl Pyridine Derivative, Suppresses Hepatocellular Carcinoma Proliferation and Invasion by Blocking the PI3K/AKT/mTOR and MAPK/ERK Pathways” (Frontiers in Oncology, 2021).

Usually IC50 stands for the concentration that gives 50% inhibition. The low end stands for inhibition by little substance, the high end for a need for much substance.

T3 sequence (P42336 whole entry): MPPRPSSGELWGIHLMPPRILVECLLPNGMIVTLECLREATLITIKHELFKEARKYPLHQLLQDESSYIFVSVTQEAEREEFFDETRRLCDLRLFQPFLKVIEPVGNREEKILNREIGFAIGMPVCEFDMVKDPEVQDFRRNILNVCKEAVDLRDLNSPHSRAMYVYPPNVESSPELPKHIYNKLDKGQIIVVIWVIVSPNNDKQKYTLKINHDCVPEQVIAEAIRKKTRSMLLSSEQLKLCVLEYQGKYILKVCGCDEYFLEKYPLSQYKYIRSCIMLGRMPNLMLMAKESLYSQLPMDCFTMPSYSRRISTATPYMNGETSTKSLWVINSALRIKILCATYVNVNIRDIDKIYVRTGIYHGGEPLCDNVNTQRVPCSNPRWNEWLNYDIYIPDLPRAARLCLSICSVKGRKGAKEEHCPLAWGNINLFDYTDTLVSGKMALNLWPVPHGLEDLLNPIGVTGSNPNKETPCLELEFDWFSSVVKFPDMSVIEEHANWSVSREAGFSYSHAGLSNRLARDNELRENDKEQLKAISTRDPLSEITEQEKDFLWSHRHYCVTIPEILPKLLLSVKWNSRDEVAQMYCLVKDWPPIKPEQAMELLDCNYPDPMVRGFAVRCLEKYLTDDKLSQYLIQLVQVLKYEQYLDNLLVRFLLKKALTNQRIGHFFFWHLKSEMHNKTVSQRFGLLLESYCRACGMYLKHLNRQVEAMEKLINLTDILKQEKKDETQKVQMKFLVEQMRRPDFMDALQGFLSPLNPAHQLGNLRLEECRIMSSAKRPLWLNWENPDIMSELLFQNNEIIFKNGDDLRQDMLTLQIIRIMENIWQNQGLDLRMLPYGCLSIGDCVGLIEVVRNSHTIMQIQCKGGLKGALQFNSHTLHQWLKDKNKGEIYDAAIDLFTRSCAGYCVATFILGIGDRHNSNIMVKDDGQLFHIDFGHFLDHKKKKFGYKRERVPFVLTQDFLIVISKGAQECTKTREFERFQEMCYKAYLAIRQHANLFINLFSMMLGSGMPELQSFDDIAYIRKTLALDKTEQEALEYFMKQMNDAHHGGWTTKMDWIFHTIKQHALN
T3 sequence (P27986 2-724 partner): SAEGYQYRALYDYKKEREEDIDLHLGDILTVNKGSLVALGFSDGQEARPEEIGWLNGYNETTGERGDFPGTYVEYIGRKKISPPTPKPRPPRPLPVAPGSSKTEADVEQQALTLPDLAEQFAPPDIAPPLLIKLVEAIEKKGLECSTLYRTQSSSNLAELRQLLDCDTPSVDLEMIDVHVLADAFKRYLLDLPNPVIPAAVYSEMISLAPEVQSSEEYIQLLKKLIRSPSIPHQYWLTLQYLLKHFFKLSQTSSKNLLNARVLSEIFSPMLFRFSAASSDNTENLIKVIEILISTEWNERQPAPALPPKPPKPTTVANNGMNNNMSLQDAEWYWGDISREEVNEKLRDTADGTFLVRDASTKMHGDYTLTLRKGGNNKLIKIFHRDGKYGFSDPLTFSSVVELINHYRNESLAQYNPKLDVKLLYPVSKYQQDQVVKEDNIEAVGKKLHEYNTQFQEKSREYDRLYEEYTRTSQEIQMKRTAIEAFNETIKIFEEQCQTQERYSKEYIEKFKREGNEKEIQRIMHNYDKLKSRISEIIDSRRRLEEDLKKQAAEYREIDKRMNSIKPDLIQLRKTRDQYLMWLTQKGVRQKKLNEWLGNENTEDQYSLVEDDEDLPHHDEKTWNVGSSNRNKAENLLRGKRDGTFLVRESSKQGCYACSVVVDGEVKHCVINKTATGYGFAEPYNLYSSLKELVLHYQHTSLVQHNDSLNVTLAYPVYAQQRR
T4 sequence (P42338 whole entry): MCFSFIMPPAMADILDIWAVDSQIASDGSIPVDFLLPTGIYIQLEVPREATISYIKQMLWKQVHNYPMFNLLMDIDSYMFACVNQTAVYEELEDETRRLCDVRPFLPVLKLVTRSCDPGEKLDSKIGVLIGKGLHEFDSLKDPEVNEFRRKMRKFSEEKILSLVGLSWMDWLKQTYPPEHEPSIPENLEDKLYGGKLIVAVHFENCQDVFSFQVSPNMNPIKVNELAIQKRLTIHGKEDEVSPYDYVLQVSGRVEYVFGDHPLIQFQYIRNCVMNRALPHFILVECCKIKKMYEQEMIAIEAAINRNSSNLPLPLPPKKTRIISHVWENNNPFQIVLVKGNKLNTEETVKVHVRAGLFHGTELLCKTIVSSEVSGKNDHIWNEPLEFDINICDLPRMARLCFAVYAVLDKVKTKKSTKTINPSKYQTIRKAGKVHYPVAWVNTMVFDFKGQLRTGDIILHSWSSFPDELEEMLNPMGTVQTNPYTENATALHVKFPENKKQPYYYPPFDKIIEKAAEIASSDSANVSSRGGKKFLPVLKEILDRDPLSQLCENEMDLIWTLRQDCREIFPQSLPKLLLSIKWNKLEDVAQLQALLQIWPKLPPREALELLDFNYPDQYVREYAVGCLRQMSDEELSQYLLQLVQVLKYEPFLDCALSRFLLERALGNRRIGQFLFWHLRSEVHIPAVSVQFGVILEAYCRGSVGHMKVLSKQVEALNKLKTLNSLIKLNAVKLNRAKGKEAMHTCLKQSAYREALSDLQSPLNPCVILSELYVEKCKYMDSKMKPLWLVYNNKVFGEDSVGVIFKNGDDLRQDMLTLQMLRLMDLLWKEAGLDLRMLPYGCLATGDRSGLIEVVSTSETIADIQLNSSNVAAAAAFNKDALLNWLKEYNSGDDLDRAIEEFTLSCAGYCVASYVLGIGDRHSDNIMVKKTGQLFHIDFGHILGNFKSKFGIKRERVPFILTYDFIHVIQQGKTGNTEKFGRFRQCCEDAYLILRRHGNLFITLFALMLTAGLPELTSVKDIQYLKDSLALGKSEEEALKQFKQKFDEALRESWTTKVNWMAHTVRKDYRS
T4 sequence (P27986 2-724 partner): as the sequence (P27986 2-724 partner) above
T1 sequence (O00329 whole entry): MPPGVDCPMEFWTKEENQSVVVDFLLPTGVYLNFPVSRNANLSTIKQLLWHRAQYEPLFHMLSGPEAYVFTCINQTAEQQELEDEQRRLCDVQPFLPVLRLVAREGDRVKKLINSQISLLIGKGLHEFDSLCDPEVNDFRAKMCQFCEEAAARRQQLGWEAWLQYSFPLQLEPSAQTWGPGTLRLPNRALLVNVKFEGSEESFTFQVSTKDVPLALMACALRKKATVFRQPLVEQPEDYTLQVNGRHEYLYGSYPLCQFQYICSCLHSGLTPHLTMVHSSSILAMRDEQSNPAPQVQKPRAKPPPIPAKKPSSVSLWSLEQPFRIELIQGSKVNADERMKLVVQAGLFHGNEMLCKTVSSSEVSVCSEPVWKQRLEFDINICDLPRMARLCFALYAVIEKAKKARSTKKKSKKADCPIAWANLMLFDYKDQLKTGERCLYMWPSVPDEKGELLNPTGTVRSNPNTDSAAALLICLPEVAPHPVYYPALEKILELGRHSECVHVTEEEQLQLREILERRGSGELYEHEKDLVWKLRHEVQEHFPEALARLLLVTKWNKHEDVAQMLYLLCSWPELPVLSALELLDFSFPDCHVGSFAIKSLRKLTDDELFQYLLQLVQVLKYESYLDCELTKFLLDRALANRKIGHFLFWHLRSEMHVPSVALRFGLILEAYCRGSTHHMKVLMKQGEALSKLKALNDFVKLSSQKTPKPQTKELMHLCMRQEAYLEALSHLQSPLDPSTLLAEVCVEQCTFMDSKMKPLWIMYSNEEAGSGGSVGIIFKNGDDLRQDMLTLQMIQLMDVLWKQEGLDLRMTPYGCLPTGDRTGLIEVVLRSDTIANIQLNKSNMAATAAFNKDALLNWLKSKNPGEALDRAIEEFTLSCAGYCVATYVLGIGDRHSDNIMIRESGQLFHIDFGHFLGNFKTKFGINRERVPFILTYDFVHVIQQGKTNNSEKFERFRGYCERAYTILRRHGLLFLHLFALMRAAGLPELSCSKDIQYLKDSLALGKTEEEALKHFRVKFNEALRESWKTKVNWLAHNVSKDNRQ
T1 sequence (P27986 2-724 partner): as the sequence (P27986 2-724 partner) above
T2 sequence (P48736 whole entry): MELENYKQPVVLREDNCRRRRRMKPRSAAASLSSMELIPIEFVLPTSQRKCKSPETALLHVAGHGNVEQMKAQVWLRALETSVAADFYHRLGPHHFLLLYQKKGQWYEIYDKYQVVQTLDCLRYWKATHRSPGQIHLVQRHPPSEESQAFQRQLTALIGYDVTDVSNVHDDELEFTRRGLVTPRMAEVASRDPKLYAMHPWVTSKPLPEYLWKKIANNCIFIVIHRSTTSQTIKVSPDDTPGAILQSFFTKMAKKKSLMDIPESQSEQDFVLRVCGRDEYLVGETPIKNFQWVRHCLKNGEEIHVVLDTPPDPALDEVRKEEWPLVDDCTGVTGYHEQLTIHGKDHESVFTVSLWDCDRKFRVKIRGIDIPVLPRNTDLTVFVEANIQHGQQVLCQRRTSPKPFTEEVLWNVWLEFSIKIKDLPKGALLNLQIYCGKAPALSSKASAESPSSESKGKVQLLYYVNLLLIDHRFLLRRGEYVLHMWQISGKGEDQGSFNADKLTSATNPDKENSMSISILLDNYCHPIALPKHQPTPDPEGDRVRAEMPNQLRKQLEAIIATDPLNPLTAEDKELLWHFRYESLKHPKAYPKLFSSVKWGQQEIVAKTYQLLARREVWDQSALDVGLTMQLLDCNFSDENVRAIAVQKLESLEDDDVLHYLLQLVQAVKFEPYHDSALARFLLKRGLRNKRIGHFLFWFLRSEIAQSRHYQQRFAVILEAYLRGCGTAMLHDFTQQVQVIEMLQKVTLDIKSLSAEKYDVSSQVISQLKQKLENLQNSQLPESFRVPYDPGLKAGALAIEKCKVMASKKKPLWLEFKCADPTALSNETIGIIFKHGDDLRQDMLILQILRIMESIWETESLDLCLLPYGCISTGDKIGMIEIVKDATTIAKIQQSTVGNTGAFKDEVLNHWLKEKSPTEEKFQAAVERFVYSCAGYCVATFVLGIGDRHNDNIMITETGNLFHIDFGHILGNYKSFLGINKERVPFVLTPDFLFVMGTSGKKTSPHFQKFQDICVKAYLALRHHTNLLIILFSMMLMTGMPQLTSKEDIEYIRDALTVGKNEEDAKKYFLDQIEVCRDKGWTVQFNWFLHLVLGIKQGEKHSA

With `COc1ncc(-c2ccc(NC(=O)/C=C/c3cccnc3)c(-n3ccnc3)c2)cc1NS(C)(=O)=O` [CK-3], the IC50 in assay [1] was 4.67 µM; in assay [2], above 10 µM; in assay [3], 6.71 µM; in assay [4] it was above 10 µM; in assay [5], 5.67 µM.
